From patent publication US20090076029A1 (Palatin Technologies, Inc., priority 2007, published 2009)
Where “and” joins values, the source holds several entries; their conditions need not be identical. Equal entries are not always repeated. Where two headings read alike, the source gives them in different places.

Columns and labels:
hMC4-R = tested on: T1, hMC4-R; test: cAMP functional assay in HEK-293 cells expressing MC4-R (agonist, neutral antagonist/Schild); format: cell-based, human; settings: for intrinsic activity at MC4-R: NDP-α-MSH maximal stimulation = 1.0; for pA2 value at MC4-R: Schild plot vs NDP-α-MSH; for functional status at MC4-R: mostly at 1 μM
T1 construct: expressed in transfected cells; host or cells: HEK-293
Procedure, shortened: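 Cells in EBSS/HEPES pH 7.5 with 0.3 mM IBMX, exposed to compound (0.05-5000 nM, 1% DMSO) for 1 h at 37 °C; cAMP by EIA, EC50 by nonlinear regression. Antagonism: 30 min compound pre-incubation, then 1 nM NDP-α-MSH for 1 h; Schild analysis over 0.005-5000 nM agonist gives pA2.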

MC4-R = tested on: T2, MC4-R; format: cell-based
T2 construct: expressed in transfected cells; host or cells: HEK-293
Source text: Assay for Antagonists of AgRP in HEK-293/MC4-R Cells stimulated with Forskolin. […] AgRP causes a decrease in the basal adenylyl cyclase activity only to the extent of 40-50%. Even though the AgRP-induced decrease in cAMP levels is substantial, conventional assay methods, such as those described above, have limited sensitivity, precluding detecting small changes that are reversed by certain antagonists to AgRP. This limitation was circumvented by the use of a non-specific activator, forskolin, which directly activates adenylyl cyclase activity and raises cyclic AMP levels. Forskolin, a cell permeable diterpenoid initially isolated from Coleus forskohlii, has the ability to stimulate adenylyl cyclase activity and increase intracellular cAMP, thus activating cAMP-dependent protein kinase and other cAMP receptor proteins. See, e.g., Seamon, K. B., Daly, J. W. Forskolin: a unique diterpene activator of cyclic AMP-generating system. J. Cyclic Nucleotide Res. 7(4):201-24, 1981; Fradkin, J. E., Cook, G. H., Kilhoffer, M. C., Wolff, J. Forskolin stimulation of thyroid adenylate cyclase and cyclic 3′,5′-adenosine monophosphate accumulation. Endocrinology 111 (3):849-56, 1982; Barber, R., Goka, T. J. Adenylate cyclase activity as a function of forskolin concentration. J. Cyclic Nucleotide Protein Phosphor. Res. 10(1):23-9, 1985; and Laurenza, A., Sutkowski, E. M., Seamon, K. B. Forskolin: a specific stimulator of adenylyl cyclase or a diterpene with multiple sites of action? Trends Pharmacol. Sci. 10(11):442-7, 1989. […] The EC50 value was about 5 μM. AgRP inhibited the forskolin-induced response by 65% at a concentration of 10 nM. The difference in forskolin stimulated response and the inhibition due to AgRP in the cAMP levels was exploited to screen compounds for their ability to antagonize AgRP inhibition and […] levels of cAMP accumulation.
Experimental details for assays included incubating cells with the test compound in the presence of the inverse agonist AgRP with the extent of reversal of the AgRP effect measured by following the increase in the levels of intracellular cAMP. HEK-293 cells expressing MCR-4 were suspended in 10 mM HEPES/Earle's Balanced Salt Solution at pH 7.5 with the phosphodiesterase inhibitor IBMX, and pre-incubated for 30 minutes with the compounds (0.5-5000 nM). The cells were then treated with AgRP (10 nM) and incubated further for 30 minutes. The cells were then treated with forskolin (10 μM) and incubated for an additional 60 minutes. Cells were lysed and cAMP was measured by EIA kit (Amersham).

Row | Structure (SMILES) | functional status (pAg, Ag, Antag, Inactive) (hMC4-R; MC4-R, Table 1) | intrinsic activity at MC4-R (hMC4-R) | pA2 value at MC4-R (hMC4-R) | functional status at MC4-R (hMC4-R; cAMP assay) | effect on AgRP inhibition of forskolin-stimulated cAMP levels (MC4-R) | EC50 (hMC4-R; MC4-R, Table 1, read-out: EC50) | EC50 (hMC4-R; cAMP assay, read-out: EC50 (nM) at MC4-R)
1 | CC(C)C[C@@H]1CN(C(=O)[C@H](N)Cc2ccc(Cl)cc2Cl)[C@@H](CCCNC(=N)N)CN1CCc1ccc2ccccc2c1 [Example 4, N-{3-[1-[2(R)-Amino-3-(2,4-dichloro-phenyl)-propionyl]-5(R)-isobutyl-4-(2-naphthalen-2-yl-ethyl)-piperazin-2(S)-yl]-propyl}-guanidine] | Antag (“Antag” means antagonist) | no intrinsic activity | 7.7 | antagonist |  |  | 
2 | CC(=O)N[C@H](Cc1ccc(C)cc1C)C(=O)N1C[C@@H](C)N(CCc2ccc3ccccc3c2)C[C@@H]1CCCNC(=N)N [Example 26, N-{1(R)-(2,4-Dimethyl-benzyl)-2-[2(S)-(3-guanidino-propyl)-5(R)-methyl-4-(2-naphthalen-2-yl-ethyl)-piperazin-1-yl]-2-oxo-ethyl}-acetamide] | Antag (“Antag” means antagonist) | no intrinsic activity | 8.3 | antagonist | reversal of AgRP inhibition |  | 
3 | Cc1ccc(C[C@@H](N)C(=O)N2C[C@@H](C)N(CCc3ccc4ccccc4c3)C[C@@H]2CCCNC(=N)N)c(C)c1 [Example 28, N-{3-[1-[2(R)-Amino-3-(2,4-dimethyl-phenyl)-propionyl]-5(R)-methyl-4-(2-naphthalen-2-yl-ethyl)-piperazin-2(S)-yl]-propyl}-guanidine] | pAg (“pAg” means partial agonist) | 0.16 and 0.2 |  |  | reversal of AgRP inhibition | 390 nM | 321 nM
